Assay results from ChEMBL document CHEMBL1151585, “Aryl phosphate derivates of AZT inhibit HIV replication in cells where the nucleoside is poorly active” (Bioorg Med Chem Lett, 1992).

Legend:
JM1 = assay: Effective dose of compound that decreases antigen production in HIV-1 infected JM cells to 50% of control; type: functional; details: Homo sapiens, read-out: ED50 (the source's name)
[1] = Toxic dose of compound which causes 50% cytotoxicity towards HIV-1 uninfected JM cells; type: toxicity, cell-based, JM1; details: human, read-out: TD50 (the source's name)

EC50 (JM1) [µM]	SMILES	CC50 [1] [µM]
40	COC(=O)C(C)NP(=O)(OCC1OC(n2cc(C)c(=O)[nH]c2=O)CC1N=[N+]=[N-])Oc1ccc([N+](=O)[O-])cc1 (stereo not drawn)	300
8	COC(=O)C(CC(C)C)NP(=O)(OCC1OC(n2cc(C)c(=O)[nH]c2=O)CC1N=[N+]=[N-])Oc1ccccc1 (stereo not drawn)	80
0.4	CCc1ccc(OP(=O)(NC(C)C(=O)OC)OCC2OC(n3cc(C)c(=O)[nH]c3=O)CC2N=[N+]=[N-])cc1 (stereo not drawn)	40
0.32	COC(=O)C(C)NP(=O)(OCC1OC(n2cc(C)c(=O)[nH]c2=O)CC1N=[N+]=[N-])Oc1ccc(F)cc1 (stereo not drawn)	> 200
1.6	COC(=O)C(Cc1ccccc1)NP(=O)(OCC1OC(n2cc(C)c(=O)[nH]c2=O)CC1N=[N+]=[N-])Oc1ccccc1 (stereo not drawn)	100
100	COC(=O)CNP(=O)(OCC1OC(n2cc(C)c(=O)[nH]c2=O)CC1N=[N+]=[N-])Oc1ccccc1 (stereo not drawn)	1000
100	Cc1cn([C@H]2C[C@H](N=[N+]=[N-])[C@@H](CO)O2)c(=O)[nH]c1=O [ZIDOVUDINE]	> 1000

SMILES	EC50 (JM1) [µM]	CC50 [1] [µM]
COC(=O)[C@H](C)NP(=O)(OC[C@H]1O[C@@H](n2cc(C)c(=O)[nH]c2=O)C[C@@H]1N=[N+]=[N-])Oc1ccccc1 (stereo partly drawn)	0.8	500
COC(=O)C(C)NP(=O)(OCC1OC(n2cc(C)c(=O)[nH]c2=O)CC1N=[N+]=[N-])Oc1ccc(OC)cc1 (stereo not drawn)	0.8	100
